Test results: the supplement of paper PMC10883282
± gives the standard deviation of the averaged measurements.

Tested on: RD-ES
Test: relative viability vs DMSO control (72 h) (fraction); higher = more viable cells
Procedure, shortened: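 Densities for seeding sarcoma cell lines into 384-well plates were set to give 80–90% confluence. After 24 h, 2.5 µl of serially diluted compound from source plates of 10 mM to 0.0002 mM went in, and plates stayed 72 h at 37 °C in 5% CO2 with 0.1% DMSO vehicle and a 5 µM positive control. Percent growth from ATPLite readings, averaged over up to triplicate wells, served as relative viability, rescaled so 1 means full and 0 means none.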

Structure (SMILES)	relative viability (0.00017 µM)	relative viability (0.00051 µM)	relative viability (0.00152 µM)	relative viability (0.00457 µM)	relative viability (0.01372 µM)	relative viability (0.04115 µM)	relative viability (0.1235 µM)	relative viability (0.3704 µM)	relative viability (1.111 µM)	relative viability (3.333 µM)	relative viability (10 µM)	relative viability (2 pM)	relative viability (5 pM)	relative viability (15 pM)	relative viability (50 pM)	relative viability (0.00014 µM)	relative viability (0.00041 µM)	relative viability (0.0012 µM)	relative viability (0.0037 µM)	relative viability (0.011 µM)	relative viability (200 fM)	relative viability (600 fM)
Cc1ccc(F)c(NC(=O)Nc2ccc(-c3cccc4[nH]nc(N)c34)cc2)c1 [Linifanib]	1 ± 0.043	0.998 ± 0.012	0.994 ± 0.011	0.978 ± 0.023	1 ± 0.028	1.01 ± 0.048	1 ± 0.014	0.982 ± 0.038	1.01 ± 0.018	0.975 ± 0.022	0.983 ± 0.043	–	–	–	–	–	–	–	–	–	–	–
C[C@]1(O)C[C@@H](c2nc(-c3ccc4ccc(-c5ccccc5)nc4c3)c3c(N)nccn32)C1 [Linsitinib]	0.986 ± 0.02	0.992 ± 0.034	0.982 ± 0.017	0.967 ± 0.015	0.928 ± 0.014	0.8432 ± 0.005	0.661 ± 0.017	0.451 ± 0.028	0.382 ± 0.016	0.354 ± 0.018	0.309 ± 0.0052	–	–	–	–	–	–	–	–	–	–	–
Cc1ccc(NC(=O)c2ccc(CN3CCN(C)CC3)cc2)cc1Nc1nc(-c2cccnc2)cs1 [Masitinib]	0.959 ± 0.018	0.957 ± 0.034	0.9656 ± 0.0031	0.965 ± 0.032	0.948 ± 0.041	0.985 ± 0.011	0.912 ± 0.047	0.86 ± 0.05	0.726 ± 0.043	0.519 ± 0.027	0.183 ± 0.0068	–	–	–	–	–	–	–	–	–	–	–
CC1(C)CNc2cc(NC(=O)c3cccnc3NCc3ccncc3)ccc21 [Motesanib]	0.969 ± 0.051	0.962 ± 0.048	0.957 ± 0.05	1.01 ± 0.038	0.964 ± 0.053	0.994 ± 0.033	0.989 ± 0.035	0.991 ± 0.04	0.989 ± 0.038	0.974 ± 0.062	0.846 ± 0.015	–	–	–	–	–	–	–	–	–	–	–
CC(C)N1CCN(Cc2cnc(-c3cc(-c4cccc5[nH]ccc45)cc4[nH]ncc34)o2)CC1 [Nemiralisib]	1 ± 0.036	1 ± 0.016	0.973 ± 0.028	0.978 ± 0.023	0.987 ± 0.03	1.02 ± 0.042	0.9842 ± 0.004	1.01 ± 0.041	0.984 ± 0.036	0.854 ± 0.016	0.223 ± 0.033	–	–	–	–	–	–	–	–	–	–	–
C=CC(=O)Nc1cccc(Oc2nc(Nc3ccc(N4CCN(C)CC4)cc3)nc3ccsc23)c1 [Olmutinib]	0.914 ± 0.052	0.949 ± 0.025	0.953 ± 0.022	0.953 ± 0.0047	0.9443 ± 0.0083	0.978 ± 0.015	0.979 ± 0.02	0.977 ± 0.012	0.9749 ± 0.0091	0.931 ± 0.068	0.774 ± 0.074	–	–	–	–	–	–	–	–	–	–	–
CC(C)(C)c1cc(NC(=O)Nc2ccc(-c3cn4c(n3)sc3cc(OCCN5CCOCC5)ccc34)cc2)no1 [Quizartinib]	0.968 ± 0.018	0.983 ± 0.028	0.993 ± 0.018	0.9932 ± 0.0065	0.993 ± 0.011	0.995 ± 0.005	0.986 ± 0.02	1 ± 0.025	0.991 ± 0.019	0.951 ± 0.043	0.869 ± 0.035	–	–	–	–	–	–	–	–	–	–	–
CNC(=O)c1cc(Oc2ccc(NC(=O)Nc3ccc(Cl)c(C(F)(F)F)c3)c(F)c2)ccn1 [Regorafenib]	0.965 ± 0.055	0.959 ± 0.053	0.991 ± 0.036	0.975 ± 0.047	0.983 ± 0.042	0.979 ± 0.014	0.986 ± 0.034	0.973 ± 0.052	0.932 ± 0.058	0.87 ± 0.043	0.776 ± 0.033	–	–	–	–	–	–	–	–	–	–	–
CO[C@H]1C[C@@H]2CC[C@@H](C)[C@@](O)(O2)C(=O)C(=O)N2CCCC[C@H]2C(=O)O[C@H]([C@H](C)C[C@@H]2CC[C@@H](OP(C)(C)=O)[C@H](OC)C2)CC(=O)[C@H](C)/C=C(\C)[C@@H](O)[C@@H](OC)C(=O)[C@H](C)C[C@H](C)/C=C/C=C/C=C/1C [Ridaforolimus]	0.988 ± 0.013	0.978 ± 0.019	0.893 ± 0.039	0.804 ± 0.0091	0.754 ± 0.019	0.71 ± 0.011	0.6822 ± 0.0053	0.674 ± 0.0087	0.693 ± 0.025	0.66 ± 0.026	0.627 ± 0.021	–	–	–	–	–	–	–	–	–	–	–
COCc1c(-c2cc3cc(C)cc(OC)c3s2)c2c(N)ncnn2c1CN1CCNC(=O)C1 [Rogaratinib]	1.04 ± 0.027	0.997 ± 0.028	1.03 ± 0.012	1.02 ± 0.032	1.03 ± 0.013	1 ± 0.036	0.971 ± 0.043	0.958 ± 0.013	0.91 ± 0.029	0.774 ± 0.014	0.455 ± 0.0058	–	–	–	–	–	–	–	–	–	–	–
N#CC[C@H](C1CCCC1)n1cc(-c2ncnc3[nH]ccc23)cn1 [Ruxolitinib]	0.938 ± 0.025	0.967 ± 0.014	0.95 ± 0.031	0.949 ± 0.024	0.932 ± 0.025	0.939 ± 0.05	0.933 ± 0.057	0.946 ± 0.029	0.939 ± 0.028	0.941 ± 0.028	0.954 ± 0.065	–	–	–	–	–	–	–	–	–	–	–
Cc1cc(C)c(/C=C2\C(=O)Nc3ccccc32)[nH]1 [Semaxanib]	0.962 ± 0.022	0.973 ± 0.034	0.961 ± 0.052	0.994 ± 0.02	0.969 ± 0.053	0.976 ± 0.013	0.93 ± 0.024	0.965 ± 0.026	0.915 ± 0.064	0.871 ± 0.033	0.792 ± 0.012	–	–	–	–	–	–	–	–	–	–	–
Cc1nc(-c2cn3c(n2)-c2ccc(-c4cnn(C(C)(C)C(N)=O)c4)cc2OCC3)n(C(C)C)n1 [Taselisib]	0.992 ± 0.028	0.983 ± 0.033	0.962 ± 0.026	0.949 ± 0.019	0.851 ± 0.044	0.694 ± 0.01	0.556 ± 0.0063	0.472 ± 0.0073	0.426 ± 0.016	0.347 ± 0.0097	0.224 ± 0.0038	–	–	–	–	–	–	–	–	–	–	–
CN1CCC(COc2cnc(-c3cccc(Cn4nc(-c5cccc(C#N)c5)ccc4=O)c3)nc2)CC1 [Tepotinib]	0.997 ± 0.016	1.01 ± 0.013	1.01 ± 0.014	1 ± 0.013	0.971 ± 0.024	1 ± 0.017	0.99 ± 0.043	0.991 ± 0.035	0.969 ± 0.029	0.953 ± 0.017	0.887 ± 0.025	–	–	–	–	–	–	–	–	–	–	–
COc1cc2nccc(Oc3ccc(NC(=O)Nc4cc(C)on4)c(Cl)c3)c2cc1OC [Tivozanib]	0.987 ± 0.038	1.01 ± 0.026	0.9944 ± 0.0095	1.02 ± 0.038	1.02 ± 0.022	1.03 ± 0.02	1 ± 0.024	1.02 ± 0.018	0.981 ± 0.031	0.912 ± 0.036	0.768 ± 0.02	–	–	–	–	–	–	–	–	–	–	–
C[C@@H]1CCN(C(=O)CC#N)C[C@@H]1N(C)c1ncnc2[nH]ccc12 [Tofacitinib]	0.942 ± 0.038	0.962 ± 0.035	0.952 ± 0.053	0.966 ± 0.045	0.961 ± 0.024	0.962 ± 0.06	0.949 ± 0.047	0.965 ± 0.034	0.955 ± 0.045	0.988 ± 0.051	1.02 ± 0.044	–	–	–	–	–	–	–	–	–	–	–
COc1cc2c(cc1O)CCN[C@]21CS[C@@H]2c3c(OC(C)=O)c(C)c4c(c3[C@H](COC1=O)N1[C@@H]2[C@H]2c3c(cc(C)c(OC)c3O)C[C@@H]([C@@H]1O)N2C)OCO4 [Trabectedin]	–	–	–	–	–	–	–	–	–	–	–	0.979 ± 0.032	0.954 ± 0.052	0.833 ± 0.06	0.581 ± 0.008	0.0757 ± 0.0065	0.0099 ± 0.002	0.00377 ± 0.00023	0.0027 ± 0.00085	0.00663 ± 0.00032	0.9532 ± 0.0081	0.985 ± 0.056
CC(=O)Nc1cccc(-n2c(=O)n(C3CC3)c(=O)c3c(Nc4ccc(I)cc4F)n(C)c(=O)c(C)c32)c1 [Trametinib]	0.979 ± 0.039	0.973 ± 0.036	0.969 ± 0.044	0.957 ± 0.022	0.973 ± 0.049	0.959 ± 0.037	0.946 ± 0.019	0.975 ± 0.031	0.978 ± 0.06	0.957 ± 0.052	0.941 ± 0.062	–	–	–	–	–	–	–	–	–	–	–
Cc1cc(Nc2ncnc3ccc(NC4=NC(C)(C)CO4)cc23)ccc1Oc1ccn2ncnc2c1 [Tucatinib]	0.989 ± 0.03	0.999 ± 0.035	1 ± 0.027	1 ± 0.035	0.95 ± 0.055	0.996 ± 0.027	0.991 ± 0.014	0.974 ± 0.02	0.985 ± 0.037	0.983 ± 0.031	0.9422 ± 0.0042	–	–	–	–	–	–	–	–	–	–	–
